Test results: patent US20250332173A1, “COMPOUNDS AND METHODS FOR MODULATING NUCLEIC ACID SPLICING” (REMIX THERAPEUTICS INC., priority 2021, published 2025)
Like-named read-outs stand apart in the source and are kept apart here.

How the values were obtained:
Assay type in all cases: cell-based, human
MYB mRNA = experiment: RT-qPCR splicing assay, MYB canonical junction (CJ) and alternative junction (AJ) mRNA; conditions: Homo sapiens; for AC50: increase in MYB alternative junction (AJ) mRNA, read-out: MYB AJ AC50
In short: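 Splicing switches were read by TaqMan RT-qPCR on lysates, quantifying exon-exon junctions of the canonical and alternative-exon isoforms. Lysates came from K562 (GAPDH/GUSB reference) or A673 (PPIA reference) cells exposed 24 h to compound in 11 threefold steps from 10 uM, with DMSO ≤0.25%.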

SMN2 mRNA = experiment: RT-qPCR splicing assay, SMN2 canonical junction (CJ) mRNA; conditions: Homo sapiens; Table 5 panel; canonical junction qPCR; compound concentration having 50% response in CJ decrease; read-out: SMN2 IC50 (decrease in CJ mRNA levels)
In short: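 Canonical exon-exon junction transcript levels measured by one-step RT-qPCR of cell lysates, normalized to a housekeeping gene (GAPDH, GUSB or PPIA). Cells used were A673 or K562, exposed for 24 h to compound in 11-point, 3-fold series from 10 uM, with final DMSO at or below 0.25%.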

Target C = experiment: HiBiT protein abundance assay, Target C (Promega Nano-Glo HiBiT Lytic Detection System, knock-in K562 cell line); conditions: Homo sapiens, K562, 24 h, HiBiT K562 cell line, 24 hours, top dose 10 μM; read-out: Effect on protein abundance, Target C (IC50 category)
In short: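 Protein abundance was read by Nano-Glo HiBiT lytic luminescence after 24 h compound exposure (10-point, threefold series from 10 μM final) of HiBiT knock-in K562 cells. Parental K562 served as baseline; the 50%-abundance concentration was interpolated from a four-parameter logistic fit.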

[1] = Table 5 panel, canonical junction qPCR, compound concentration having 50% response in CJ decrease, read-out: MYB IC50 (decrease in CJ mRNA levels)
[2] = decrease in MYB canonical junction (CJ) mRNA, RT-qPCR, read-out: MYB CJ IC50

Row | IC50 (MYB mRNA; [1]) [nM] | IC50 (MYB mRNA; [2]) [nM] | IC50 (SMN2 mRNA) [nM] | IC50 (Target C) [nM] | SMILES | AC50 (MYB mRNA; RT-qPCR) [nM]
1 | 100 to 1000 | 100 to 1000 | < 100 | 100 to 1000 | CC(=O)c1cc(-c2cc(F)c3c(=O)n(C4CCNCC4)ccc3c2)cn2cc(C)nc12 [Compound 393, 6-{8-acetyl-2-methylimidazo[1,2-a]pyridin-6-yl}-8-fluoro-2-(piperidin-4-yl)isoquinolin-1-one 2,2,2-trifluoroacetate] | 100 to 1000
2 | < 100 | < 100 | < 100 | < 100 | Cc1cn2nc(-c3cc(C)c4c(=O)n(C5CCNC6(CC6)C5)ccc4c3)cc(C)c2n1 (stereo in doubt) [Compound 398, (R)-6-(2,8-dimethylimidazo[1,2-b]pyridazin-6-yl)-8-methyl-2-(4-azaspiro[2.5]octan-7-yl)isoquinolin-1(2H)-one] | < 100
3 | < 100 | < 100 | < 100 | < 100 | Cc1cn2nc(-c3cc(Cl)c4c(=O)n(C5CCNCC5)ccc4c3)cc(C)c2n1 [Compound 390, 8-chloro-6-{2,8-dimethylimidazo[1,2-b]pyridazin-6-yl}-2-(piperidin-4-yl)isoquinolin-1-one; trifluoroacetaldehyde] | < 100
4 | 1000 to 10000 | 1000 to 10000 | 100 to 1000 | 1000 to 10000 | Cc1cn2nc(-c3cc(O)c4c(=O)n(C5CCNC5)cc(C)c4c3)cc(C)c2n1 (stereo not drawn) [Compound 462] | 1000 to 10000
5 | 1000 to 10000 | 1000 to 10000 | 1000 to 10000 | 1000 to 10000 | Cc1cc(-c2ccc3c(=O)n(C4CCNC5(COC5)C4)cnc3c2)cc2cn(C)nc12 (stereo not drawn) [Compound 375] | 1000 to 10000
6 | < 100 | < 100 | < 100 | < 100 | Cn1cc2cc(-c3cc(F)c4c(=O)n(C5CCNC6(CC6)C5)ccc4c3)cc(F)c2n1 (stereo not drawn) [Compound 412] | < 100
7 | < 100 | < 100 | < 100 | < 100 | Cc1nc2c(F)cc(-c3cc(F)c4c(=O)n(C5CCNC6(CC6)C5)ccc4c3)cc2o1 (stereo not drawn) [Compound 417, 2-{4-azaspiro[2.5]octan-7-yl}-8-fluoro-6-(4-fluoro-2-methyl-1,3-benzoxazol-6-yl)isoquinolin-1-one] | < 100
8 | 1000 to 10000 | 1000 to 10000 | 100 to 1000 | > 10000 | Cn1cc2cc(-c3cc(F)c4c(=O)n(C5CCNC6(CC6)C5)ccc4c3)c(O)cc2n1 (stereo not drawn) [Compound 414, 2-{4-azaspiro[2.5]octan-7-yl}-8-fluoro-6-(6-hydroxy-2-methylindazol-5-yl)isoquinolin-1-one] | 1000 to 10000
9 | > 10000 | > 10000 | > 10000 | > 10000 | COc1cc2c(=O)n(C3CCNCC3)ccc2cc1-c1cc(C)c2nc(C)cn2n1 [Compound 449, 6-{2,8-dimethylimidazo[1,2-b]pyridazin-6-yl}-7-methoxy-2-(piperidin-4-yl)isoquinolin-1-one] | > 10000
10 | < 100 | < 100 | < 100 | < 100 | Cc1cn2nc(-c3cc(C)c4c(=O)n(C5CCNC6(CC6)C5)ncc4c3)cc(C)c2n1 (stereo not drawn) [Compound 423, 6-(2,8-dimethylimidazo[1,2-b]pyridazin-6-yl)-8-methyl-2-(4-azaspiro[2.5]octan-7-yl)phthalazin-1(2H)-one] | < 100
11 | > 10000 | > 10000 | > 10000 | > 10000 | Cc1cn2cc(-c3cc(S(C)(=O)=O)c4c(=O)n(C5CCNCC5)ccc4c3)cc(F)c2n1 [Compound 409, 6-(8-fluoro-2-methylimidazo[1,2-a]pyridin-6-yl)-8-(methylsulfonyl)-2-(piperidin-4-yl)isoquinolin-1(2H)-one] | > 10000
12 | < 100 | < 100 | < 100 | 100 to 1000 | Cc1cn2cc(-c3cc(F)c4c(=O)n(C5CCNCC5)cc(C)c4c3)cc(F)c2n1 [Compound 461, 8-fluoro-6-{8-fluoro-2-methylimidazo[1,2-a]pyridin-6-yl}-4-methyl-2-(piperidin-4-yl)isoquinolin-1-one] | < 100
13 | < 100 | 100 to 1000 | < 100 | 1000 to 10000 | Cc1cn2nc(-c3cc(F)c4c(=O)n(C5CCNC5)ccc4c3)cc(C)c2n1 (stereo in doubt) [Compound 382, (R)-6-(2,8-dimethylimidazo[1,2-b]pyridazin-6-yl)-8-fluoro-2-(pyrrolidin-3-yl)isoquinolin-1(2H)-one] | < 100
14 | 100 to 1000 | 100 to 1000 | 100 to 1000 | 100 to 1000 | Cc1cn2nc(-c3ccc4c(=O)n([C@@H]5CCNC[C@H]5F)ncc4c3)cc(C)c2n1 [Compound 379] | 100 to 1000
15 | > 10000 | > 10000 | > 10000 | > 10000 | Cc1cn2c(n1)CCC(c1ccc3c(=O)n(C4CCNCC4)ccc3c1)C2 (stereo not drawn) [Compound 453, 6-{2-methyl-5H,6H,7H,8H-imidazo[1,2-a]pyridin-6-yl}-2-(piperidin-4-yl)isoquinolin-1-one] | > 10000
16 | > 10000 | > 10000 | 1000 to 10000 | > 10000 | Cc1cn2cc(-c3ccc4c(=O)n(C5CCNC5)cc(C)c4c3)cc(C#N)c2n1 (stereo not drawn) [Compound 442, 2-methyl-6-[4-methyl-1-oxo-2-(pyrrolidin-3-yl)isoquinolin-6-yl]imidazo[1,2-a]pyridine-8-carbonitrile] | > 10000
17 | < 100 | < 100 | < 100 | 100 to 1000 | Cc1cn2nc(-c3ccc4c(=O)n(C5CCNCC5)cc(C)c4c3)cc(C)c2n1 [Compound 381, 6-{2,8-dimethylimidazo[1,2-b]pyridazin-6-yl}-4-methyl-2-(piperidin-4-yl)isoquinolin-1-one] | < 100
18 | < 100 | 100 to 1000 | < 100 | 1000 to 10000 | Cc1cn2cc(-c3cc(F)c4c(=O)n([C@@H]5CCNC5)ccc4c3)cc(F)c2n1 (single isomer, unassigned) [Compound 395] | < 100
19 | > 10000 | > 10000 | > 10000 | > 10000 | Cn1cc2cc(-n3cnc4cc(NC5CCNCC5)ccc4c3=O)ccc2n1 [Compound 162] | > 10000
20 | 100 to 1000 | 100 to 1000 | 100 to 1000 | 100 to 1000 | Cc1cn2cc(-c3cc(F)c4c(=O)n(C5CCOC5)cnc4c3)cc(C#N)c2n1 (stereo in doubt) [Compound 499, (R)-6-(5-fluoro-4-oxo-3-(tetrahydrofuran-3-yl)-3,4-dihydroquinazolin-7-yl)-2-methylimidazo[1,2-a]pyridine-8-carbonitrile] | 100 to 1000
21 | < 100 | < 100 | < 100 | < 100 | Cc1cn2nc(-c3cc4ccn(C5CCNCC5)c(=O)c4cc3O)cc(C)c2n1 [Compound 448, 6-{2,8-dimethylimidazo[1,2-b]pyridazin-6-yl}-7-hydroxy-2-(piperidin-4-yl)isoquinolin-1-one] | < 100
22 | > 10000 | > 10000 | > 10000 | 100 to 1000 | Cc1cc(-c2cc(F)c3c(=O)n(C4CCNC5(CC5)C4)ccc3c2)cc2c1nc(C)n2C (stereo not drawn) [Compound 429] | > 10000
23 | < 100 | 1000 to 10000 | < 100 | > 10000 | Cc1cn2cc(-c3cc(O)c4c(=O)n(C5CCNC5)ccc4c3)cc(C#N)c2n1 (stereo not drawn) [Compound 433, 6-(8-hydroxy-1-oxo-2-(pyrrolidin-3-yl)-1,2-dihydroisoquinolin-6-yl)-2-methylimidazo[1,2-a]pyridine-8-carbonitrile] | 100 to 1000
24 | 100 to 1000 | 100 to 1000 | 100 to 1000 | 100 to 1000 | Cc1cn2cc(-c3cc(F)c4c(=O)n(C5CCOCC5)cnc4c3)cc(C#N)c2n1 [Compound 367, 6-[5-fluoro-3-(oxan-4-yl)-4-oxoquinazolin-7-yl]-2-methylimidazo[1,2-a]pyridine-8-carbonitrile] | 100 to 1000
25 | 1000 to 10000 | 1000 to 10000 | < 100 | 1000 to 10000 | Cc1cn2cc(-c3ccc4c(=O)n(C5CCNC6(CC6)C5)ncc4c3)cc(Cl)c2n1 (stereo not drawn) [Compound 510] | 1000 to 10000
26 | < 100 | < 100 | < 100 | 100 to 1000 | Cc1cn2cc(-c3cc(F)c4c(=O)n([C@H]5CCNC5)ccc4c3)cc(F)c2n1 (single isomer, unassigned) [Compound 396] | < 100

Row | SMILES | IC50 (MYB mRNA; [1]) [nM] | IC50 (MYB mRNA; [2]) [nM] | IC50 (SMN2 mRNA) [nM] | IC50 (Target C) [nM] | AC50 (MYB mRNA; RT-qPCR) [nM]
27 | CN1C2C=C(c3ccc4c(=O)n(-c5ccc6nn(C)cc6c5)cnc4c3)CC1CC2 (stereo not drawn) [Compound 161] | > 10000 | > 10000 | > 10000 | > 10000 | > 10000
